Results reported in ChEMBL document CHEMBL3885861, “Open TG-GATES”.

Organism: Rattus norvegicus
Test: Open TG-GATES - Regimen: Daily Repeat
Format: toxicity, organism-based, Sprague-Dawley
Parameters: regimen Daily Repeat, gender Male, age 6 weeks
Conditions: in vivo, po, route gavage; for APTT / Bas / Eos / Fbg / Hb / Ht / Lym / MCH / MCHC / MCV / Mono / Neu / PT / Plat / RBC / Ret / WBC: tissue Blood; for KIDNEY_L / KIDNEY_R / KIDNEY_TOTAL: tissue Kidney; for LIVER: tissue Liver; for A/G / ALP / ALT / AST / BUN / CRE / Ca / Cl / DBIL / GLC / IP / K / LDH / Na / PL / RALB / TBIL / TC / TG / TP / gamma-GTP: tissue Plasma
[1] = 0 mg/kg, 72 h, dose level Control, time 3 day
[2] = 0 mg/kg, […], dose level Control, time 7 day
[3] = 0 mg/kg, […], dose level Control, time 14 day
[4] = 0 mg/kg, […], dose level Control, time 28 day
[5] = 50 mg/kg, 72 h, dose level Low, time 3 day
[6] = 50 mg/kg, […], dose level Low, time 7 day
[7] = 50 mg/kg, […], dose level Low, time 14 day
[8] = 50 mg/kg, […], dose level Low, time 28 day

NNC(=O)c1ccncc1 [ISONIAZID]
TERMINAL_BW [1]: 219.4 g
APTT [1]: 14.3 s
Bas [1]: 0.2%
Eos [1]: 2%
Fbg [1]: 229.4 mg/dL
Hb [1]: 13.6 g/dL
Ht [1]: 40.8%
Lym [1]: 74%
MCH [1]: 21.7 pg
MCHC [1]: 33.2%
MCV [1]: 65.2 fL
Mono [1]: 8.8%
Neu [1]: 15.6%
PT [1]: 12.1 s
Plat [1]: 120.9 x10_4/uL
RBC [1]: 626.2 x10_4/ul
Ret [1]: 8.2%
WBC [1]: 101.8 x10_2/uL
KIDNEY_L [1]: 0.9 g
KIDNEY_R [1]: 1 g
KIDNEY_TOTAL [1]: 1.9 g
LIVER [1]: 11.3 g
A/G [1]: 1.8
ALP [1]: 836.8 IU/L
ALT [1]: 33.6 IU/L
AST [1]: 61.8 IU/L
BUN [1]: 19 mg/dL
CRE [1]: 0.5 mg/dL
Ca [1]: 10.8 mg/dL
Cl [1]: 103.8 meq/L
DBIL [1]: 0.068 mg/dL
GLC [1]: 209.2 mg/dL
IP [1]: 7.6 mg/dL
K [1]: 5.1 meq/L
LDH [1]: 102 IU/L
Na [1]: 139.4 meq/L
PL [1]: 163.4 mg/dL
RALB [1]: 3.8 g/dL
TBIL [1]: 0.3 mg/dL
TC [1]: 85.8 mg/dL
TG [1]: 110.2 mg/dL
TP [1]: 6 g/dL
gamma-GTP [1]: 1.6 IU/L
TERMINAL_BW [2]: 251.9 g
TERMINAL_BW [3]: 294 g
TERMINAL_BW [4]: 374.9 g
APTT [2]: 14.6 s
Bas [2]: 0%
Eos [2]: 1%
Fbg [2]: 235 mg/dL
Hb [2]: 13.8 g/dL
Ht [2]: 41.5%
Lym [2]: 76.8%
MCH [2]: 21.4 pg
MCHC [2]: 33.4%
MCV [2]: 64.2 fL
Mono [2]: 10.2%
Neu [2]: 11.6%
PT [2]: 12 s
Plat [2]: 127.4 x10_4/uL
RBC [2]: 646.4 x10_4/ul
Ret [2]: 6%
WBC [2]: 108.1 x10_2/uL
APTT [3]: 16.1 s
Bas [3]: 0%
Eos [3]: 1.2%
Fbg [3]: 224.2 mg/dL
Hb [3]: 15.1 g/dL
Ht [3]: 44.9%
Lym [3]: 78.2%
MCH [3]: 20.3 pg
MCHC [3]: 33.5%
MCV [3]: 60.6 fL
Mono [3]: 5.5%
Neu [3]: 14.8%
PT [3]: 11.8 s
Plat [3]: 114.6 x10_4/uL
RBC [3]: 740.8 x10_4/ul
Ret [3]: 3.9%
WBC [3]: 109.8 x10_2/uL
APTT [4]: 15.9 s
Bas [4]: 0%
Eos [4]: 1.2%
Fbg [4]: 227.4 mg/dL
Hb [4]: 15.5 g/dL
Ht [4]: 46%
Lym [4]: 85.8%
MCH [4]: 19.7 pg
MCHC [4]: 33.8%
MCV [4]: 58.2 fL
Mono [4]: 3.2%
Neu [4]: 9.2%
PT [4]: 12 s
Plat [4]: 106.3 x10_4/uL
RBC [4]: 790.6 x10_4/ul
Ret [4]: 2.5%
WBC [4]: 140.8 x10_2/uL
KIDNEY_L [2]: 1.1 g
KIDNEY_R [2]: 1.1 g
KIDNEY_TOTAL [2]: 2.2 g
KIDNEY_L [3]: 1.1 g
KIDNEY_R [3]: 1.1 g
KIDNEY_TOTAL [3]: 2.2 g
KIDNEY_L [4]: 1.3 g
KIDNEY_R [4]: 1.3 g
KIDNEY_TOTAL [4]: 2.6 g
LIVER [2]: 12.3 g
LIVER [3]: 13.3 g
LIVER [4]: 15.5 g
A/G [2]: 1.7
ALP [2]: 884.4 IU/L
ALT [2]: 33 IU/L
AST [2]: 56.6 IU/L
BUN [2]: 19.6 mg/dL
CRE [2]: 0.5 mg/dL
Ca [2]: 10.6 mg/dL
Cl [2]: 105 meq/L
DBIL [2]: 0.074 mg/dL
GLC [2]: 223.8 mg/dL
IP [2]: 8.4 mg/dL
K [2]: 5 meq/L
LDH [2]: 115.2 IU/L
Na [2]: 140.4 meq/L
PL [2]: 163 mg/dL
RALB [2]: 3.7 g/dL
TBIL [2]: 0.3 mg/dL
TC [2]: 81.6 mg/dL
TG [2]: 130.2 mg/dL
TP [2]: 5.9 g/dL
gamma-GTP [2]: 1.2 IU/L
A/G [3]: 1.6
ALP [3]: 783.8 IU/L
ALT [3]: 29.6 IU/L
AST [3]: 62 IU/L
BUN [3]: 19.2 mg/dL
CRE [3]: 0.6 mg/dL
Ca [3]: 10.4 mg/dL
Cl [3]: 106.8 meq/L
DBIL [3]: 0.002 mg/dL
GLC [3]: 213.2 mg/dL
IP [3]: 7.9 mg/dL
K [3]: 5.1 meq/L
LDH [3]: 160 IU/L
Na [3]: 139.4 meq/L
PL [3]: 151 mg/dL
RALB [3]: 3.6 g/dL
TBIL [3]: 0.3 mg/dL
TC [3]: 76.4 mg/dL
TG [3]: 144 mg/dL
TP [3]: 5.9 g/dL
gamma-GTP [3]: 0.4 IU/L
A/G [4]: 1.4
ALP [4]: 751.6 IU/L
ALT [4]: 26.8 IU/L
AST [4]: 56.4 IU/L
BUN [4]: 19.4 mg/dL
CRE [4]: 0.5 mg/dL
Ca [4]: 10 mg/dL
Cl [4]: 104.6 meq/L
DBIL [4]: 0.06 mg/dL
GLC [4]: 208.8 mg/dL
IP [4]: 7.2 mg/dL
K [4]: 4.4 meq/L
LDH [4]: 73.4 IU/L
Na [4]: 142.2 meq/L
PL [4]: 141.8 mg/dL
RALB [4]: 3.6 g/dL
TBIL [4]: 0.2 mg/dL
TC [4]: 70.6 mg/dL
TG [4]: 125.6 mg/dL
TP [4]: 6.2 g/dL
gamma-GTP [4]: 1.4 IU/L
TERMINAL_BW [5]: 220.3 g
APTT [5]: 14.6 s
Bas [5]: 0%
Eos [5]: 1.2%
Fbg [5]: 242.2 mg/dL
Hb [5]: 13.6 g/dL
Ht [5]: 40.6%
Lym [5]: 73.4%
MCH [5]: 21.8 pg
MCHC [5]: 33.4%
MCV [5]: 65.3 fL
Mono [5]: 11.8%
Neu [5]: 13.8%
PT [5]: 12 s
Plat [5]: 113 x10_4/uL
RBC [5]: 622.8 x10_4/ul
Ret [5]: 7.5%
WBC [5]: 85.3 x10_2/uL
KIDNEY_L [5]: 1 g
KIDNEY_R [5]: 1 g
KIDNEY_TOTAL [5]: 2 g
LIVER [5]: 11.3 g
A/G [5]: 1.8
ALP [5]: 862.8 IU/L
ALT [5]: 23.2 IU/L
AST [5]: 57 IU/L
BUN [5]: 16.6 mg/dL
CRE [5]: 0.5 mg/dL
Ca [5]: 10.7 mg/dL
Cl [5]: 104.6 meq/L
DBIL [5]: 0.008 mg/dL
GLC [5]: 225.2 mg/dL
IP [5]: 8.3 mg/dL
K [5]: 4.8 meq/L
LDH [5]: 108.6 IU/L
Na [5]: 140.2 meq/L
PL [5]: 145.4 mg/dL
RALB [5]: 3.8 g/dL
TBIL [5]: 0.3 mg/dL
TC [5]: 79.2 mg/dL
TG [5]: 98 mg/dL
TP [5]: 5.9 g/dL
gamma-GTP [5]: 1 IU/L
TERMINAL_BW [6]: 247.3 g
TERMINAL_BW [7]: 307.2 g
TERMINAL_BW [8]: 372.9 g
APTT [6]: 15.7 s
Bas [6]: 0%
Eos [6]: 1%
Fbg [6]: 230.4 mg/dL
Hb [6]: 13.8 g/dL
Ht [6]: 41.1%
Lym [6]: 80.8%
MCH [6]: 20.9 pg
MCHC [6]: 33.5%
MCV [6]: 62.3 fL
Mono [6]: 6.8%
Neu [6]: 11.2%
PT [6]: 12.1 s
Plat [6]: 125.4 x10_4/uL
RBC [6]: 661.6 x10_4/ul
Ret [6]: 6.1%
WBC [6]: 118.4 x10_2/uL
APTT [7]: 15.7 s
Bas [7]: 0%
Eos [7]: 1%
Fbg [7]: 227.8 mg/dL
Hb [7]: 14 g/dL
Ht [7]: 41.8%
Lym [7]: 79%
MCH [7]: 20.1 pg
MCHC [7]: 33.5%
MCV [7]: 60.1 fL
Mono [7]: 7.4%
Neu [7]: 12.8%
PT [7]: 12 s
Plat [7]: 118.6 x10_4/uL
RBC [7]: 697.4 x10_4/ul
Ret [7]: 5.1%
WBC [7]: 137 x10_2/uL
APTT [8]: 15.6 s
Bas [8]: 0%
Eos [8]: 1%
Fbg [8]: 227.4 mg/dL
Hb [8]: 14.7 g/dL
Ht [8]: 44.2%
Lym [8]: 86.2%
MCH [8]: 19.1 pg
MCHC [8]: 33.4%
MCV [8]: 57.3 fL
Mono [8]: 2.8%
Neu [8]: 10%
PT [8]: 12 s
Plat [8]: 102.2 x10_4/uL
RBC [8]: 771.2 x10_4/ul
Ret [8]: 3%
WBC [8]: 149.4 x10_2/uL
KIDNEY_L [6]: 1.1 g
KIDNEY_R [6]: 1.1 g
KIDNEY_TOTAL [6]: 2.2 g
KIDNEY_L [7]: 1.2 g
KIDNEY_R [7]: 1.3 g
KIDNEY_TOTAL [7]: 2.5 g
KIDNEY_L [8]: 1.4 g
KIDNEY_R [8]: 1.3 g
KIDNEY_TOTAL [8]: 2.7 g
LIVER [6]: 12 g
LIVER [7]: 14.1 g
LIVER [8]: 15.1 g
A/G [6]: 1.5
ALP [6]: 797.6 IU/L
ALT [6]: 20.6 IU/L
AST [6]: 60.6 IU/L
BUN [6]: 18.4 mg/dL
CRE [6]: 0.5 mg/dL
Ca [6]: 10.5 mg/dL
Cl [6]: 105.6 meq/L
DBIL [6]: 0.08 mg/dL
GLC [6]: 227.2 mg/dL
IP [6]: 8.2 mg/dL
K [6]: 5 meq/L
LDH [6]: 113 IU/L
Na [6]: 139 meq/L
PL [6]: 147 mg/dL
RALB [6]: 3.6 g/dL
TBIL [6]: 0.3 mg/dL
TC [6]: 73.2 mg/dL
TG [6]: 100.4 mg/dL
TP [6]: 6.1 g/dL
gamma-GTP [6]: 1 IU/L
A/G [7]: 1.6
ALP [7]: 683 IU/L
ALT [7]: 19 IU/L
AST [7]: 58.2 IU/L
BUN [7]: 16 mg/dL
CRE [7]: 0.6 mg/dL
Ca [7]: 10.5 mg/dL
Cl [7]: 105.8 meq/L
DBIL [7]: 0 mg/dL
GLC [7]: 203 mg/dL
IP [7]: 8.1 mg/dL
K [7]: 5.1 meq/L
LDH [7]: 101.6 IU/L
Na [7]: 138.2 meq/L
PL [7]: 138.6 mg/dL
RALB [7]: 3.7 g/dL
TBIL [7]: 0.3 mg/dL
TC [7]: 68.8 mg/dL
TG [7]: 119.2 mg/dL
TP [7]: 6 g/dL
gamma-GTP [7]: 0.4 IU/L
A/G [8]: 1.4
ALP [8]: 560.2 IU/L
ALT [8]: 14.2 IU/L
AST [8]: 55.2 IU/L
BUN [8]: 20.4 mg/dL
CRE [8]: 0.6 mg/dL
Ca [8]: 10.1 mg/dL
Cl [8]: 104.8 meq/L
DBIL [8]: 0.042 mg/dL
GLC [8]: 208.6 mg/dL
IP [8]: 7.3 mg/dL
K [8]: 4.5 meq/L
LDH [8]: 87.4 IU/L
Na [8]: 141.4 meq/L
PL [8]: 138.6 mg/dL
RALB [8]: 3.6 g/dL
TBIL [8]: 0.2 mg/dL
TC [8]: 66.4 mg/dL
TG [8]: 131.2 mg/dL
TP [8]: 6.1 g/dL
gamma-GTP [8]: 1.4 IU/L
